According to patent publication US20240301319A1, “PERFUMING COMPOSITIONS” (FIRMNICH SA, priority 2017, published 2024):

Columns and labels:
[1] = Volatility of perfuming compounds (Tables 4 to 10), with top/middle/bottom note type; assay type: physicochemical
Summary of the method: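 Note type follows from air volatility (μg/l): bottom 49–0.1, middle 99–50, top 70,000–100. Compounds are listed within watery, green, fruity, citrus, sweet, gourmand and woody families.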

[2] = Odor threshold and odor value of perfuming compounds (Tables 4 to 10)
[3] = Table 6, perfuming compounds having a fruity note
[4] = Table 6, perfuming compounds having a fruity note, note type by volatility
[5] = note type (Top/Middle/Bottom) by volatility, perfuming compounds having a green note
[6] = perfuming compounds having a green note
[7] = Table 4, watery note, top, middle or bottom note
[8] = Table 4, watery note, equals volatility divided by odor threshold
[9] = Table 8, perfuming compounds having a sweet note
[10] = Table 8, perfuming compounds having a sweet note, note type by volatility
[11] = Table 7, citrus note, top, middle or bottom note
[12] = Table 7, citrus note, equals volatility divided by odor threshold
[13] = Table 10, perfuming compounds having a woody note, note type by volatility
[14] = Table 9, perfuming compounds having a gourmand note, note type by volatility

CC/C=C\CCOC(=O)CCC [(3Z)-3-hexen-1-yl butyrate]
Volatility [1, 3]: 1674.15 μg/l air | Type [1, 4]: TOP (perfuming compounds having a volatility ranging from 70,000 to 100 μg/l in air are referred to as “top notes”) | Type [1, 5]: Top | Volatility (μg/l air) [1, 6]: 1674.15 μg/l air | Odor Threshold (μg/l air) [2, 6]: 7.85E−02 μg/l air

CCCCCCCC=O [OCTANAL]
Type [1, 5]: Top | Volatility (μg/l air) [1, 6]: 4147.61 μg/l air | Odor Threshold (μg/l air) [2, 6]: 2.77E−04 μg/l air

CCCCCCO [1-hexanol]
Type [1, 5]: Top | Volatility (μg/l air) [1, 6]: 2070.00 μg/l air | Odor Threshold (μg/l air) [2, 6]: 1.17E−01 μg/l air

CC(=O)OCCC(C)CCC=C(C)C (centres unmarked) [3,7-DIMETHYL-6-OCTENYL ACETATE]
Volatility [1, 3]: 128.72 μg/l air | Type [1, 4]: TOP (perfuming compounds having a volatility ranging from 70,000 to 100 μg/l in air are referred to as “top notes”) | Odor Threshold [2, 3]: 2.75E−02 μg/l air | Odor Value [2, 3]: 4.68E+03

CC/C=C\CC/C=C/CO [(2E,6Z)-2,6-NONADIEN-1-OL]
Volatility (μg/l air) ([1]; Table 4, watery note): 98.76 μg/l air | Type [1, 7]: middle (perfuming compounds having a volatility ranging from 99 to 50 μg/l in air are referred to as “middle notes”) | Type [1, 5]: Middle | Volatility (μg/l air) [1, 6]: 98.76 μg/l air | Odor Threshold (μg/l air) ([2]; Table 4, watery note): 3.22E−06 μg/l air | Odor Value [2, 8]: 3.07E+07 | Odor Threshold (μg/l air) [2, 6]: 3.22E−06 μg/l air

CC1=CCC2C(C1)C1CC2C2(C1)OC2C (racemic)
Volatility [1, 3]: 36.76 μg/l air | Type [1, 4]: Bottom | Type [1, 5]: Bottom | Volatility (μg/l air) [1, 6]: 36.76 μg/l air | Odor Threshold [2, 3]: 9.93E−04 μg/l air | Odor Value [2, 3]: 3.70E+04 | Odor Threshold (μg/l air) [2, 6]: 9.93E−04 μg/l air

(1S,4S,9S,10R,13R)-5,5,9,13-tetramethyl-14,16-dioxatetracyclo[11.2.1.0~1,10~.0~4,9~]hexadecane (A) + (1R,4S,9S,10R,13S)-5,5,9,13-tetramethyl-14,16-dioxatetracyclo[11.2.1.0~1,10~.0~4,9~]hexadecane (B)
Volatility (μg/l air) ([1]; Table 4, watery note): 6.77 μg/l air | Type [1, 7]: bottom (perfuming compounds having a volatility ranging from 49 to 0.1 μg/l in air are referred to as “bottom notes”) | Odor Threshold (μg/l air) ([2]; Table 4, watery note): 4.36E−04 μg/l air | Odor Value [2, 8]: 1.55E+04

CC1=C(O)C(=O)CC1 [2-HYDROXY-3-METHYL-2-CYCLOPENTEN-1-ONE]
Volatility [1, 9]: 396.50 μg/l air | Type [1, 10]: Top | Odor Threshold [2, 9]: 3.82E−04 μg/l air | Odor Value [2, 9]: 1.04E+06

CC/C=C\CCOC(=O)c1ccccc1 [(3Z)-3-hexen-1-yl benzoate]
Volatility [1, 3]: 11.05 μg/l air | Type [1, 4]: Bottom | Volatility (μg/l air) ([1]; Table 7, citrus note): 11.05 μg/l air | Type [1, 11]: Bottom | Type [1, 5]: Bottom | Volatility (μg/l air) [1, 6]: 11.05 μg/l air | Odor Threshold [2, 3]: 4.37E−02 μg/l air | Odor Value [2, 3]: 2.53E+02 | Odor Threshold (μg/l air) ([2]; Table 7, citrus note): 4.37E−02 μg/l air | Odor Value [2, 12]: 2.53E+02 | Odor Threshold (μg/l air) [2, 6]: 4.37E−02 μg/l air

C/C=C/C(=O)C1C(C)=CCCC1(C)C (racemic)
Type [1, 4]: TOP (perfuming compounds having a volatility ranging from 70,000 to 100 μg/l in air are referred to as “top notes”) | Volatility [1, 9]: 110.53 μg/l air | Type [1, 10]: Top | Type [1, 13]: Top | Volatility ([1]; Table 10, woody note): 110.53 μg/l air | Type [1, 5]: Top | Volatility (μg/l air) [1, 6]: 110.53 μg/l air | Odor Threshold [2, 3]: 1.04E−04 μg/l air | Odor Threshold [2, 9]: 1.04E−04 μg/l air | Odor Value [2, 9]: 1.06E+06 | Odor Threshold ([2]; Table 10, woody note): 1.04E−04 μg/l air | Odor Threshold (μg/l air) [2, 6]: 1.04E−04 μg/l air

9-ETHYLIDENE-3-OXATRICYCLO[6.2.1.0(2,7)]UNDECAN-4-ONE (A) + 10-ETHYLIDENE-3-OXATRICYCLO[6.2.1.0(2,7)] . . . (B)
Volatility (μg/l air) ([1]; Table 7, citrus note): 2.10 μg/l air | Type [1, 11]: Bottom | Odor Threshold (μg/l air) ([2]; Table 7, citrus note): 1.42E−04 μg/l air | Odor Value [2, 12]: 1.48E+04

C=CCOC(=O)COC1CCCCC1 [ALLYL (CYCLOHEXYLOXY)ACETATE]
Volatility [1, 3]: 47.01 μg/l air | Type [1, 4]: Bottom | Type [1, 5]: Bottom | Volatility (μg/l air) [1, 6]: 47.01 μg/l air | Odor Threshold [2, 3]: 4.66E−05 μg/l air | Odor Value [2, 3]: 1.01E+06 | Odor Threshold (μg/l air) [2, 6]: 4.66E−05 μg/l air

CC/C(=C\C[C@H]1CC=C(C)C1(C)C)CO
Type [1, 13]: Bottom | Volatility ([1]; Table 10, woody note): 2.75 μg/l air | Odor Threshold ([2]; Table 10, woody note): 2.41E−05 μg/l air

COc1cc(C)ccc1O [2-METHOXY-4-METHYLPHENOL]
Volatility [1, 9]: 306.61 μg/l air | Type [1, 10]: Top | Odor Threshold [2, 9]: 6.96E−04 μg/l air | Odor Value [2, 9]: 4.41E+05

C=CCOC(=O)CCC1CCCCC1 [ALLYL 3-CYCLOHEXYLPROPANOATE]
Volatility [1, 3]: 75.80 μg/l air | Type [1, 4]: Middle | Volatility [1, 9]: 75.80 μg/l air | Type [1, 10]: Middle | Volatility ([1]; Table 9, gourmand note): 75.80 μg/l air | Type [1, 14]: Middle | Type [1, 5]: Middle | Volatility (μg/l air) [1, 6]: 75.80 μg/l air | Odor Threshold [2, 3]: 7.96E−03 μg/l air | Odor Value [2, 3]: 9.53E+03 | Odor Threshold [2, 9]: 7.96E−03 μg/l air | Odor Value [2, 9]: 9.53E+03 | Odor Threshold ([2]; Table 9, gourmand note): 7.96E−03 μg/l air | Odor Threshold (μg/l air) [2, 6]: 7.96E−03 μg/l air

CC(=O)OCCC1CCCCC1 [2-CYCLOHEXYLETHYL ACETATE]
Volatility ([1]; Table 9, gourmand note): 489.45 μg/l air | Type [1, 14]: Top | Odor Threshold ([2]; Table 9, gourmand note): 4.49E−02 μg/l air

COc1ccc(OC)c(C(C)(C)C)c1 [2-TERT-BUTYL-1,4-DIMETHOXYBENZENE]
Type [1, 13]: Middle | Volatility ([1]; Table 10, woody note): 82.95 μg/l air | Odor Threshold ([2]; Table 10, woody note): 1.65E−02 μg/l air

CC1(C)C2C[C@H]3CCC(=O)C=C3[C@@H]1C2 (single isomer, unassigned; (+))
Type [1, 13]: Bottom | Volatility ([1]; Table 10, woody note): 4.86 μg/l air | Odor Threshold ([2]; Table 10, woody note): 2.86E−05 μg/l air

(−)-(1S)-2,6,6-TRIMETHYL-BICYCLO[3.1.1]HEPT-2-ENE
Type [1, 5]: Top | Volatility (μg/l air) [1, 6]: 33722.60 μg/l air | Odor Threshold (μg/l air) [2, 6]: 1.02E−01 μg/l air

C=CCOC(=O)CCCCCC [ALLYL HEPTANOATE]
Volatility [1, 3]: 1235.24 μg/l air | Type [1, 4]: TOP (perfuming compounds having a volatility ranging from 70,000 to 100 μg/l in air are referred to as “top notes”) | Volatility [1, 9]: 1235.24 μg/l air | Type [1, 10]: Top | Volatility ([1]; Table 9, gourmand note): 1235.24 μg/l air | Type [1, 14]: Top | Type [1, 5]: Top | Volatility (μg/l air) [1, 6]: 1235.24 μg/l air | Odor Threshold [2, 9]: 1.75E−02 μg/l air | Odor Value [2, 9]: 7.06E+04 | Odor Threshold ([2]; Table 9, gourmand note): 1.75E−02 μg/l air | Odor Threshold (μg/l air) [2, 6]: 1.75E−02 μg/l air

O=C(Cc1ccccc1)OCCc1ccccc1 [2-PHENYLETHYL PHENYLACETATE]
Volatility [1, 3]: 0.20 μg/l air | Type [1, 4]: Bottom | Volatility (μg/l air) ([1]; Table 7, citrus note): 0.20 μg/l air | Type [1, 11]: Bottom | Volatility [1, 9]: 0.20 μg/l air | Type [1, 10]: Bottom | Volatility ([1]; Table 9, gourmand note): 0.20 μg/l air | Type [1, 14]: Bottom | Odor Threshold [2, 3]: 9.08E−04 μg/l air | Odor Value [2, 3]: 2.24E+02 | Odor Threshold (μg/l air) ([2]; Table 7, citrus note): 9.08E−04 μg/l air | Odor Value [2, 12]: 2.24E+02 | Odor Threshold [2, 9]: 9.08E−04 μg/l air | Odor Value [2, 9]: 2.24E+02 | Odor Threshold ([2]; Table 9, gourmand note): 9.08E−04 μg/l air
